Reference: publication PMC6835763, “Influence of Short Cationic Lipopeptides with Fatty Acids of Different Chain Lengths on Bacterial Biofilms Formed on Polystyrene and Hydrogel Surfaces” (Pharmaceutics, 2019)
“And” between values parts separate entries of the source, which are not always exact repeats. Identical values can stand only once. Where a SMILES comes first, the peptide text is derived from it. Bridges are numbered along the chain shown (N, C = ends). Roman numbers before positions name the chains, in order. The star is where a group is joined. Palmitoyl = CCCCCCCCCCCCCCCC(=O)*; Myristoyl = CCCCCCCCCCCCCC(=O)*; Lauroyl = CCCCCCCCCCCC(=O)*

Columns and labels:
Assay type in all cases: cell-based
[1] = system: Enterococcus faecalis ATCC 29212; assay: MBFIC assay (biofilm formation inhibition, resazurin); settings: ca. 5 × 10^8 CFU/mL in MHB II, 37 °C, 18 h, visual, triplicate; for MBFIC E. faecalis, CL: contact lenses (CL, Etafilcon A hydrogel) in 24-well plates; for MBFIC E. faecalis, PS: polystyrene plates (PS), 96-well
Protocol: (§1) To determine the inhibitory effect of antimicrobials on the formation of biofilm on hydrophobic surfaces, the bacterial suspensions of strains (initial inoculum of ca. 5 × 10^8 CFU/mL in MHB II medium supplemented with antimicrobials) were cultured on 96-well PS at 37 °C for 18 h under aerobic conditions. After incubation, the suspensions were aspirated, and the wells were rinsed three times with sterile phosphate buffer PBS (AppliChem, Darmstadt, Germany) in order to remove the planktonic cells. Resazurin (final concentration per sample = 0.005%) was applied as a cell viability reagent for reading the results. In contact with the living cells, the dye is metabolized by bacterial dehydrogenases, resulting in a reduction of blue resazurin to pink resorufin. All assays were performed in triplicate and included the growth controls (positive controls: bacterial suspensions without antimicrobials) and the sterility controls (negative controls: a sterile MBH medium). After 1h of incubation, a visual evaluation of results was made. […] In a preliminary study, it was established that the application of lipopeptides at a concentration found active from visual evaluation caused the reduction of bacterial metabolism to approximately 10% (or less) of the positive control once the results were evaluated with a spectrophotometer. After 1 h of incubation with the dye, absorbance was measured at 570 and 600 nm using a microplate reader (Thermo Fisher Scientific, Waltham, MA, USA). The metabolic activity of bacteria in the samples was measured according to the formula presented in the previous paper.
(§2) The MBFIC assay with CL was applied in order to access the influence of lipopeptides on the biofilm formation on hydrogel surfaces. The entire sterile CL (1-Day Acuvue Moist, containing Etafilcon A., purchased from Johnson & Johnson (Vision Care, Jacksonsville, FL, USA), were placed in 24-well PS (Orange Scientific, Braine-l’ Alleud, Belgium) and the MBFICs were determined according to the above protocol.

[2] = system: Escherichia coli ATCC 25922; assay: as above; settings: ca. 5 × 10^8 CFU/mL in MHB II, 37 °C, 18 h, visual, triplicate; for MBFIC E. coli, CL: contact lenses (CL, Etafilcon A hydrogel) in 24-well plates; for MBFIC E. coli, PS: polystyrene plates (PS), 96-well
Protocol: as §1, §2

[3] = system: Proteus mirabilis PCM 543; assay: as above; settings: ca. 5 × 10^8 CFU/mL in MHB II, 37 °C, 18 h, visual, triplicate; for MBFIC P. mirabilis, CL: contact lenses (CL, Etafilcon A hydrogel) in 24-well plates; for MBFIC P. mirabilis, PS: polystyrene plates (PS), 96-well
Protocol: as §1, §2

[4] = system: Pseudomonas aeruginosa ATCC 9027; assay: as above; settings: ca. 5 × 10^8 CFU/mL in MHB II, 37 °C, 18 h, visual, triplicate; for MBFIC P. aeruginosa, CL: contact lenses (CL, Etafilcon A hydrogel) in 24-well plates; for MBFIC P. aeruginosa, PS: polystyrene plates (PS), 96-well
Protocol: as §1, §2

[5] = system: Staphylococcus aureus ATCC 25923; assay: as above; settings: for MBFIC S. aureus, CL: contact lenses (CL, Etafilcon A hydrogel) in 24-well plates; for MBFIC S. aureus, CL / MBFIC S. aureus, PS: ca. 5 × 10^8 CFU/mL in MHB II, 37 °C, 18 h, resazurin, visual, triplicate; for MBFIC S. aureus, PS: polystyrene plates (PS), 96-well
Protocol: as §1, §2

[6] = system: Staphylococcus epidermidis ATCC 14990; assay: as above; settings: for MBFIC S. epidermidis, CL: contact lenses (CL, Etafilcon A hydrogel) in 24-well plates; for MBFIC S. epidermidis, CL / MBFIC S. epidermidis, PS: ca. 5 × 10^8 CFU/mL in MHB II, 37 °C, 18 h, resazurin, visual, triplicate; for MBFIC S. epidermidis, PS: polystyrene plates (PS), 96-well; for concentrations inhibiting formation of SE biofilm (MBFIC range): range over PS and CL
Protocol: as §1, §2

gram-positive strains = assay: MIC, broth microdilution, range over strains; settings: range over the gram-positive strains, liquid culture
Protocol: The MICs of synthetic lipopeptides and conventional antimicrobials were determined using the broth microdilution method according to the Clinical and Laboratory Standard Institute (CLSI) guidelines on reference strains. […] The PS were incubated under aerobic conditions at 37 °C for 18 h. The MIC (μg/mL) was assumed as the lowest concentration of the compound that inhibited the growth of the microorganisms. All experiments were performed in triplicate and included the growth and sterility controls.

Compound | MBFIC E. faecalis, CL [1] | MBFIC E. faecalis, PS [1] | MBFIC E. coli, CL [2] | MBFIC E. coli, PS [2] | MBFIC P. mirabilis, CL [3] | MBFIC P. mirabilis, PS [3] | MBFIC P. aeruginosa, CL [4] | MBFIC P. aeruginosa, PS [4] | MBFIC S. aureus, CL [5] | MBFIC S. aureus, PS [5] | MBFIC S. epidermidis, CL [6] | MBFIC S. epidermidis, PS [6] | concentrations inhibiting formation of SE biofilm (MBFIC range) [6] | concentrations inhibiting formation of SA biofilm (MBFIC range) ([5]; range over PS and CL) | concentrations inhibiting growth of gram-positive strains (MIC range) (gram-positive strains)
CCCCCCCCCCCCCCCC(=O)N[C@@H](CCCCN)C(=O)N[C@@H](CCCNC(=N)N)C(N)=O [Lipopeptide 8, C16-KR-NH2] (Palmitoyl-Lys-Arg-NH2) | 64/64 μg/mL | 64/64 μg/mL | 64 μg/mL and 64/64 μg/mL | 64 μg/mL and 64/64 μg/mL | 512/512 μg/mL | 512/512 μg/mL | 128 µg/mL | 512 µg/mL | 16 µg/mL | 8 µg/mL | 32 µg/mL | 16 µg/mL |  |  | 
CCCCCCCCCCCCCCCC(=O)N[C@@H](CCCCN)C(=O)N[C@@H](CCCCN)C(=O)N[C@@H](CCCCN)C(N)=O [Lipopeptide 7, C16-KKK-NH2] | 64/64 μg/mL | 64/64 μg/mL | 32 µg/mL | 64 µg/mL | 256 µg/mL | 512 µg/mL | 512/512 μg/mL | 512/512 μg/mL | 32/32 μg/mL | 32/32 μg/mL | 32 µg/mL | 8 µg/mL |  |  | 
(C10)2-KKKK-NH2 [Lipopeptide 9] | 64/64 μg/mL | 64/64 μg/mL | 64 µg/mL | 128 µg/mL | 512/512 μg/mL | 512/512 μg/mL | 64 μg/mL and 64/64 μg/mL | 64 μg/mL and 64/64 μg/mL | 16 µg/mL | 8 µg/mL | 16 µg/mL | 8 µg/mL | 8 to 16 µg/mL |  | 
CCCCCCCCCCCCCCCC(=O)N[C@@H](CCCCN)C(=O)NCC(=O)N[C@@H](CCCCN)C(N)=O [Lipopeptide 5, C16-KGK-NH2] (Palmitoyl-Lys-Gly-Lys-NH2) | 64/64 μg/mL | 64/64 μg/mL | 128 µg/mL | 64 µg/mL | >512/512 μg/mL | >512/512 μg/mL | 256 µg/mL | 512 µg/mL | 32/32 μg/mL | 32/32 μg/mL | 64 µg/mL | 32 µg/mL |  |  | 
CCCCCCCCCCCCCC(=O)N[C@@H](CCCCN)C(=O)N[C@@H](CCCNC(=N)N)C(N)=O [Lipopeptide 4, C14-KR-NH2] (Myristoyl-Lys-Arg-NH2) | 64 µg/mL | 128 µg/mL | 128/128 μg/mL | 128/128 μg/mL | 512/>512 μg/mL | 512/>512 μg/mL | 128 µg/mL | 256 µg/mL | 2 µg/mL | 16 µg/mL | 32/32 μg/mL | 32/32 μg/mL |  | 2 to 16 µg/mL | 
CCCCCCCCCCCC(=O)N[C@@H](CCCCN)C(=O)N[C@@H](CCCCN)C(=O)N[C@@H](CSSC[C@H](NC(=O)[C@H](CCCCN)NC(=O)[C@H](CCCCN)NC(=O)CCCCCCCCCCC)C(N)=O)C(N)=O [Lipopeptide 1, C12-KKC-NH2] (I: Lauroyl-Lys-Lys-Cys-NH2 / II: Lauroyl-Lys-Lys-Cys-NH2; disulfide I:3-II:3) | 64 µg/mL | 16 µg/mL | 128/128 μg/mL | 128/128 μg/mL | >512/>512 μg/mL | >512/>512 μg/mL | 128 µg/mL | 512 µg/mL | 32/32 μg/mL | 32/32 μg/mL | 16 µg/mL | 8 µg/mL | 8 to 16 µg/mL |  | 2 to 8 µg/mL
CCCCCCCCCCCCCC(=O)N[C@@H](CCCCN)C(=O)N[C@@H](CCCCN)C(=O)N[C@@H](CSSC[C@H](NC(=O)[C@H](CCCCN)NC(=O)[C@H](CCCCN)NC(=O)CCCCCCCCCCCCC)C(N)=O)C(N)=O [Lipopeptide 3, C14-KKC-NH2] (I: Myristoyl-Lys-Lys-Cys-NH2 / II: Myristoyl-Lys-Lys-Cys-NH2; disulfide I:3-II:3) | 64 µg/mL | 256 µg/mL | 64 µg/mL | 256 µg/mL | 512/512 μg/mL | 512/512 μg/mL | 512/512 μg/mL | 512/512 μg/mL | 32 µg/mL | 64 µg/mL | 32 µg/mL | 64 µg/mL |  |  | 
